For eleven compounds, IC50 and melting point results are on record in US6953812B2, “Glucagon antagonists/inverse agonists” (Novo Nordisk, Inc., priority 2000, dated 2005).

SMILES strings stand for the structures. Read-outs that look alike come from different tables or passages of the source.

The target in one series is T1, human glucagon receptor (Homo sapiens, UniProt P47871).
T1 construct: expressed in transfected cells; host or cells: BHK (baby hamster kidney) cells, membrane preparation
Description: Glucagon Binding Assay (II). The settings on record: membranes of BHK cells transfected with human glucagon receptor, 125I-glucagon, SPA; read-out: Glu Bd Assay (II) IC50. In a few lines:
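Membranes from BHK cells transfected with the human glucagon receptor were incubated with test compound (in DMSO) in HEPES buffer pH 7.5 with Ca2+/Mg2+ and WGA beads for 4 h, then settled 8–48 h before scintillation counting. Non-specific binding was defined with 500 nM glucagon.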

The target in a further series is T2, human GIP receptor (Homo sapiens, UniProt P48546).
T2 construct: expressed in transfected cells; host or cells: BHK (baby hamster kidney) cells, membrane preparation
T2 sequence (P48546 22-466): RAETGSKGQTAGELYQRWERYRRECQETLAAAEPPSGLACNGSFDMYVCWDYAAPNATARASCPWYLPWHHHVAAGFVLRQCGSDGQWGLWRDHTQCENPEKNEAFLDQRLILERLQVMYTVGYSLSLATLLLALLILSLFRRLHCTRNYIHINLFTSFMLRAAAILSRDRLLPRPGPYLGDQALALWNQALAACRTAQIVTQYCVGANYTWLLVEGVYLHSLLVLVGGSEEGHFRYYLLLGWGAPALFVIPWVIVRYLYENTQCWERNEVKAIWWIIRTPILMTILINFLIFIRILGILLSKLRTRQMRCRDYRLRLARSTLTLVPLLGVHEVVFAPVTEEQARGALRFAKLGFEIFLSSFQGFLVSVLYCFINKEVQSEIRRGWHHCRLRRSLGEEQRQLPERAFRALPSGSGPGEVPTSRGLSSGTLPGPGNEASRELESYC
The series can be described thus: GIP Binding Assay. Put shortly:
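Membranes from BHK cells transfected with human GIP receptor; competition binding in HEPES pH 7.5 buffer with Ca2+/Mg2+, compounds added in DMSO, WGA SPA beads. Incubated 3.5 h shaking, settled 8-48 h, then scintillation counted; non-specific binding defined with 500 nM GIP.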

The mark [1] stands for this setting: membranes of BHK cells transfected with human GIP receptor, 125I-GIP, SPA, read-out: GIP Bd Assay IC50.

T1 sequence (P47871 26-477): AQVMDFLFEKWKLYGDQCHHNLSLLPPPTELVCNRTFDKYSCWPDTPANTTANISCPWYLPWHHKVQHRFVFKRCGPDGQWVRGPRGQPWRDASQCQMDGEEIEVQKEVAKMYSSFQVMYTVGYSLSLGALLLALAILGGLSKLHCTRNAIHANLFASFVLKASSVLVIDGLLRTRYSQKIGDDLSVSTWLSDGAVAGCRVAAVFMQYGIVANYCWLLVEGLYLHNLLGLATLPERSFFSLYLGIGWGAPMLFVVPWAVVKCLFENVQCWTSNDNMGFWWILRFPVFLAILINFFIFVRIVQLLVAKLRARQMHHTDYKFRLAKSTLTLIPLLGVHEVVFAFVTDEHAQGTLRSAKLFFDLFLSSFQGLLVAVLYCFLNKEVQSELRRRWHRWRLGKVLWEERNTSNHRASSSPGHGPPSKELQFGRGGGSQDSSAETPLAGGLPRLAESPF

Consider `CC(C)(C)[C@H]1CC[C@H](N(Cc2ccc(C(=O)NC[C@H](O)C(=O)O)cc2)C(=O)Nc2cc(C(F)(F)F)cc(C(F)(F)F)c2)CC1` [Example 13, (S)-Trans-3-{4-[3-(3,5-Bis(trifluoromethyl)phenyl)-1-(4-tert-butylcyclohexyl)ureidomethyl]benzoylamino}-2-hydroxypropionic acid], for which the melting point lay in the range of 185 to 187 °C. The IC50 at human glucagon receptor stood at 228 nM. Also, the IC50 on human GIP receptor (setting [1]) was 700 nM.
Compound `CC(C)(C)[C@H]1CC[C@H](N(Cc2ccc(C(=O)NC[C@@H](O)C(=O)O)cc2)C(=O)Nc2cc(C(F)(F)F)cc(C(F)(F)F)c2)CC1` [Example 14, (R)-Trans-3-{4-[3-(3,5-bis(trifluoromethyl)phenyl)-1-(4-tert-butylcyclohexyl)ureidomethyl]benzoylamino}-2-hydroxypropionic acid] gave a melting point of 184 to 187 °C. Moreover, the IC50 on human glucagon receptor came out at 19 nM. At human GIP receptor (setting [1]), the IC50 worked out at 274 nM.
`O=C(NC[C@@H](O)C(=O)O)c1ccc(CN(C(=O)Nc2cccc(C(F)(F)F)c2)c2ccc(C3CCCCC3)cc2)cc1` [Example 5, (R)-3-{4-[1-(4-Cyclohexylphenyl)-3-(3-trifluoromethylphenyl)ureidomethyl]benzoylamino}-2-hydroxypropionic acid]: the IC50 on human glucagon receptor stood at 26 nM; at human GIP receptor (setting [1]) it was 519 nM.
Take `O=C(NCC(O)C(=O)O)c1ccc(CN(C(=O)Nc2cc(Cl)cc(Cl)c2)c2ccc(C3=CCCCC3)cc2)cc1` (racemic) [Example 17, (RS)-3-{4-[1-(4-Cyclohex-1-enylphenyl)-3-(3,5-dichlorophenyl)ureidomethyl]benzoylamino}-2-hydroxypropionic acid]: the results for the IC50 at human glucagon receptor and at human GIP receptor were 22 nM and 448 nM, respectively.
Consider `CSc1cccc(NC(=O)N(Cc2ccc(C(=O)NC[C@@H](O)C(=O)O)cc2)c2ccc(C3CCCCC3)cc2)c1` [Example 29, (R)-3-{4-[1-(4-Cyclohexylphenyl)-3-(3-methylsulfanylphenyl)ureidomethyl]benzoylamino}-2-hydroxypropionic Acid], for which the half-inhibitory concentration (IC50) at human glucagon receptor was 24 nM; at human GIP receptor (setting [1]) it was 623 nM.
For `O=C(NC[C@@H](O)C(=O)O)c1ccc(CN(C(=O)Nc2ccc3c(c2)C(F)(F)OC(F)(F)O3)c2ccc(C3=CCCCC3)cc2)cc1` [Example 30, (R)-3-{4-[1-(4-Cyclohex-1-enylphenyl)-3-(2,2,4,4-tetrafluoro-4H-benzo[1,3]dioxin-6-yl)ureido-methyl]benzoylamino}-2-hydroxypropionic Acid], in that order: 13 nM and 217 nM.
Take `CC(C)(C)C1CC=C(c2ccc(N(Cc3ccc(C(=O)NC[C@@H](O)C(=O)O)cc3)C(=O)Nc3cc(Cl)cc(Cl)c3)cc2)CC1` (stereo partly drawn) [Example 33, 3-{4-[1-[4-(4-tert-Butylcyclohex-1-enyl)phenyl]-3-(3,5-dichlorophenyl)ureidomethyl]benzoyl-amino}-2-(R)-hydroxypropionic Acid]: the melting point lay within 151 to 155 °C. Also, the 50% inhibitory concentration (IC50) on human glucagon receptor was found to be 12 nM. In addition, the IC50 at human GIP receptor (setting [1]) came to 189 nM.
Take `O=C(NC[C@@H](O)C(=O)O)c1ccc(CN(C(=O)Nc2ccc(F)c(F)c2)c2ccc(C3=CCCCC3)cc2)cc1` [Example 48, (R)-3-{4-[1-(4-Cyclohex-1-enylphenyl)-3-(3,4-difluorophenyl)ureidomethyl]benzoylamino}-2-hydroxypropionic acid]: the figures for the IC50 on human glucagon receptor and on human GIP receptor (setting [1]) were 182 nM and > 3000 nM, respectively.
For `O=C(NC[C@@H](O)C(=O)O)c1ccc(CN(C(=O)Nc2ccc(Cl)c(Cl)c2)c2ccc(C3CCCCC3)cc2)cc1` [Example 42, (R)-3-{4-[1-(4-Cyclohexylphenyl)-3-(3,4-dichlorophenyl)ureidomethyl]benzoylamino}-2-hydroxypropionic acid], in that order: 41 nM and 340 nM.
For `COc1cc(NC(=O)N(Cc2ccc(C(=O)NC[C@@H](O)C(=O)O)cc2)c2ccc(C3=CCCCC3)cc2)cc(C(F)(F)F)c1` [Example 10, (R)-3-{4-[1-(4-Cyclohex-1-enylphenyl)-3-(3-methoxy-5-trifluoromethylphenyl)ureidomethyl]benzoylamino}-2-hydroxypropionic acid] the same measures were 19 nM and 294 nM.
For `CC(C)(C)C1CCC(N(Cc2ccc(C(=O)NC[C@@H](O)C(=O)O)cc2)C(=O)c2csc3ccc(Cl)cc23)CC1` (stereo partly drawn) [Example 61, (R)-3-(4-{[(4-tert-Butylcyclohexyl)-(5-chlorobenzo[b]thiophene-3-carbonyl)amino]methyl}-benzoylamino)-2-hydroxypropionic acid], in that order: 754 nM and > 3000 nM.
